{"source": "patent US4311702A", "about": "“Imidazo[1,2-a]pyridines having anti-ulcer activity” (Poli Industria Chimica S.p.A., priority 1979, dated 1982)", "key": {"[1]": {"test_system": "cold and restraint gastric ulcers", "experiment": "Cold and restraint gastric ulcers in the rat", "assay_type": "in vivo, rat (Wistar female)", "conditions": "po, read-out: Cold and restraint gastric ulcers ED50", "description": "cold and restraint gastric ulcers induced in the rat following the under mentioned method originally described by E. C. Senay and R. J. Levine in Proc. Soc.\nWistar female rats fasting from the previous evening are introduced in plastic tubes having such a diameter to exert a light constriction and immediately after they are put in a thermoregulated ambient at about 4° C. Two hours later the rats are sacrificed under ethereal anesthesia and their stomachs are examined to ascertain the presence of ulcers.\nThe ulcer index of each stomach is determined, multiplying the number of gastric lesions of any kind by a corresponding arbitrary value (petechiae=0.5; punctiform ulcer=1; linear ulcer<2 mm=2; linear ulcer>2 mm=3) and adding the partial scores. Rats are treated with the compound under study half an hour before cold exposure."}, "[2]": {"test_system": "acetylsalicylic acid and pylorus ligation gastric ulcers", "experiment": "Acetylsalicylic acid and pylorus ligation gastric ulcers in the rat", "assay_type": "in vivo, rat (Wistar male)", "conditions": "read-out: Acetylsalicylic acid and pylorus ligation gastric ulcers ED50", "description": "Wistar male rats, weighing 160-200 g, fasting from the previous evening are administered intraduodenum with the compound under study immediately after pylorus ligation under light ethereal anesthesia. Two hours after treatment rats receive orally 50 mg/kg of acetylsalicylic acid, dissolved in 5% gum arabic solution. An hour later rats are sacrificed under ether anesthesia and stomachs examined for presence of ulcers."}, "[3]": {"test_system": "indomethacin gastric ulcers", "experiment": "Indomethacin gastric ulcers in the rat", "assay_type": "in vivo, rat (Wistar male)", "conditions": "po, read-out: Indomethacin gastric ulcers ED50", "description": "indomethacin gastric ulcers, induced in the rat following the under mentioned method originally described by Y. H. Lee, K. W. Mollison, W. C. Cheng in Arch. Int. Pharmacodyn.\nWistar male rats, weighing 160-200 g, starved for 24 hours, are administered endoperitoneally with 30 mg/kg of indomethacin in 0.6% aqueous suspension of 1% gum arabic solution and immediately after they are treated orally with the compound under study. 5 hours later animals are sacrificed under ethereal anesthesia, the stomachs are removed, open along the great curvature and examined for the presence of ulcers. The ulcer index is expressed in terms of square root of the number of gastric ulcers."}, "[4]": {"test_system": "gastric secretion (hydrochloric acid)", "experiment": "Activity on gastric secretion in Shay rats (total acidity)", "assay_type": "in vivo, rat (Wistar male)", "conditions": "Rattus norvegicus, read-out: Shay rats total acidity ED50", "description": "Wistar male rats, weighing 160-200 g, starved for 24 hours are treated orally with the compound under study after pylorus ligation under light ethereal anesthesia. 4 hours later rats are anesthetized with ether and after oesophagus ligation, the stomachs are removed and the contents collected. After centrifugation of the gastric juice, the quantity of hydrochloric acid is determined by titration with 0.01 N Sodium hydroxide, using phenolphthalein as indicator."}, "[5]": {"conditions": "os, half an hour before cold exposure, dose reducing the ulcer index by 50% compared with controls"}, "[6]": {"conditions": "intraduodenum immediately after pylorus ligation, dose reducing the number of ulcers by 50% compared with controls"}, "[7]": {"conditions": "os, 30 mg/kg indomethacin endoperitoneally, dose reducing the ulcer index by 50% compared with controls"}, "[8]": {"conditions": "i.d. (Table 2 head), 4 hours after pylorus ligation, dose reducing secretion of hydrochloric acid by 50% compared with controls"}}, "note": "Where two headings read alike, the source gives them in different places.", "data": [{"smiles": "CNC(=NC#N)NCCSCc1cnc2ccccn12", "note": "[Ia]", "values": [{"measurement": "ED50", "setting": "[1]; [5]", "value": 2.8, "unit": "mg/kg"}, {"measurement": "ED50", "setting": "[2]; [6]", "value": 7.3, "unit": "mg/kg"}, {"measurement": "ED50", "setting": "[3]; [7]", "value": 3.4, "unit": "mg/kg"}, {"measurement": "ED50", "setting": "[4]; [8]", "value": 1.8, "unit": "mg/kg"}]}, {"smiles": "CNC(=NC#N)NCCSCc1c(C)nc2ccccn12", "note": "[Ib]", "values": [{"measurement": "ED50", "setting": "[1]; [5]", "value": 1.5, "unit": "mg/kg"}, {"measurement": "ED50", "setting": "[2]; [6]", "value": 2.1, "unit": "mg/kg"}, {"measurement": "ED50", "setting": "[3]; [7]", "value": 0.7, "unit": "mg/kg"}, {"measurement": "ED50", "setting": "[4]; [8]", "value": 1.1, "unit": "mg/kg"}]}, {"smiles": "CNC(=NC#N)NCCSC(C)c1cnc2ccccn12", "note": "(centres unmarked) [Ic]", "values": [{"measurement": "ED50", "setting": "[1]; [5]", "value": 1.9, "unit": "mg/kg"}, {"measurement": "ED50", "setting": "[2]; [6]", "value": 5.7, "unit": "mg/kg"}, {"measurement": "ED50", "setting": "[3]; [7]", "value": 3.3, "unit": "mg/kg"}, {"measurement": "ED50", "setting": "[4]; [8]", "value": 2.8, "unit": "mg/kg"}]}, {"smiles": "CNC(=NC#N)NCCSC(C)c1c(C)nc2ccccn12", "note": "(centres unmarked) [Id]", "values": [{"measurement": "ED50", "setting": "[1]; [5]", "value": 0.7, "unit": "mg/kg"}, {"measurement": "ED50", "setting": "[2]; [6]", "value": 0.9, "unit": "mg/kg"}, {"measurement": "ED50", "setting": "[3]; [7]", "value": 0.9, "unit": "mg/kg"}, {"measurement": "ED50", "setting": "[4]; [8]", "value": 0.6, "unit": "mg/kg"}]}, {"smiles": "CN/C(=N/CCSCc1nc[nH]c1C)NC#N", "note": "[[…], Cimetidine, reference compound]", "values": [{"measurement": "ED50", "setting": "[1]", "value": 6.3, "unit": "mg/kg"}, {"measurement": "ED50", "setting": "[2]", "value": 3.8, "unit": "mg/kg"}, {"measurement": "ED50", "setting": "[3]", "value": 2.4, "unit": "mg/kg"}, {"measurement": "ED50", "setting": "[4]; 4 h", "value": 0.6, "unit": "mg/kg"}]}]}
